How the values were obtained:
[1] = test system: Rheumatoid arthritis (RA) patients; conditions: literature refs 7-9; cited from earlier work
recent-onset RA patients [2] = experiment: Adverse drug events during six months of methotrexate therapy, BeSt trial; type: in vivo, human
Experimental: Toxicity was evaluated by counting each reported adverse drug event and its consequences for the patient and treatment. Adverse drug events were spontaneously reported by the patients, or were reported as a result of non-specific questioning on patients' well-being by the investigator, by physical examination or laboratory measurements during follow up. In case of adverse drug events, methotrexate was continued at the lowest tolerated dose, or if methotrexate was not tolerated at all, the DMARD therapy was adjusted according to the protocol. Of all reported adverse drug events, the following non-infectious adverse drug events were evaluated explicitly: gastrointestinal adverse drug events defined as patients' general well-being, nausea, vomiting, diarrhea, and constipation; liver adverse drug events defined as all cases of elevated functional liver enzymes resulting in methotrexate dose adjustment or discontinuation; pneumonitis; skin and mucosal disorders. Moreover, patients were evaluated for leucopenia (<4.10^9/L), ALAT 3 times upper limit of normal (>135 U/L) and for alkaline phosphatase (AF) 3 times the upper limit of normal (>360 U/L).
For toxicity analysis, all patients who altered therapy from methotrexate before six months of follow-up were verified for adverse drug events after change of therapy and included in the analysis. The analyses of laboratory measurements were performed for completers only. The toxicity regression analysis was tested for the following confounders: weight, creatinine clearance, methotrexate dosage group (15 or 25 mg) and use of alcohol.

recent-onset RA patients [3] = experiment: Clinical response to methotrexate monotherapy (DAS) in genotyped patients of the BeSt trial; type: in vivo, human; conditions: for Good clinical response at six months, number of patients / Good clinical response at six months, percentage of patients: DAS≦2.4
Excerpt: The 247 patients enrolled in the study was a sub-cohort of 508 patients participating in the BeSt trial (25). Inclusion criteria for this trial were fulfilment of the American College of Rheumatology (ACR) 1987 criteria, age of 18 years or older, a disease duration of less than 2 years. All patients had to have an active disease defined as ≧6/66 swollen joints and ≧6/68 tender joints and either an ESR ≧28 mm/hr or a Visual Analogue Scale (VAS) for global health ≦20 mm (on a scale of 0-100, 0=worst, 100=best).
The BeSt trial is a randomized, multi-centre, single-blinded, clinical study comparing the clinical efficacy of four different treatment strategies in early rheumatoid arthritis; sequential monotherapy (n=126 starting with methotrexate), step-up to combination therapy with sulphasalazine (n=121 starting with methotrexate), initial combination therapy with methotrexate, sulphasalazine and a high tapered dose of prednisolone (n=133) or initial biologic therapy with infliximab and methotrexate (n=128). In the present study, only patients allocated to initial single use of methotrexate were selected (n=247).
The primary objective of treatment in the BeSt study was achieving good clinical response as defined by the DAS≦2.4 (26-28). The DAS is a validated composite outcome measure consisting of the Ritchie articular index (RAI), the number of swollen joints (SJC, out of 44), general well being as indicated by the patient on a visual analogue scale (VAS), and the Erythrocyte Sedimentation Rate (ESR). A research nurse who remained blinded for the allocated treatment group scored the DAS every three months.
All selected patients started with oral methotrexate 7.5 mg weekly, increased to 15 mg weekly after 4 weeks, combined with folic acid (1 mg per day). In case of insufficient clinical response at three months of follow-up (DAS>2.4), the dosage was increased stepwise to 25 mg weekly, either orally or parenterally as decided by the rheumatologist. If the clinical response remained insufficient with methotrexate 25 mg weekly, patients were treated according to the next step of the BeSt protocol; patients with methotrexate sequential monotherapy switched to sulphasalazine 1000 mg twice daily; patients with initial step-up combination therapy, sulphasalazine 1000 mg twice daily was added to methotrexate. Concomitant therapies with nonsteroidal anti-inflammatory drugs (NSAIDs), as well as intra-articular injections with corticosteroids, were allowed for all treatment groups. For current analysis, clinical data for the first six months of follow-up were used, representing methotrexate treatment only.
“Responders” were defined as patients with DAS ≦2.4 (good clinical response) based on EULAR response criteria (26-28) and ‘non-responders ’ as patients with DAS >2.4 at six months of follow up.
Differences in baseline characteristics were analysed by Student's t-test for continuous variables or Chi-square test for dichotomous variables. Differences in genotype distribution for response and toxicity were tested by 3 by 2 cross tabs for each genotype, and by 2 by 2 cross tabs for carriers versus non-carriers analysis with the two-sided Chi-square test. We used binary logistic analysis in case of differences in genotype distribution, to calculate odds ratios for achieving good response or experiencing adverse drug events. Age and gender were identified as possible confounders and were used as covariates in all regression analyses. The primary efficacy endpoint was good clinical response at six months (DAS≦2.4). DAS good clinical response status required patients to be present at a given time point; no values were carried forward. Secondary endpoints were good clinical improvement defined as change in DAS>1.2 (ΔDAS>1.2) and moderate clinical improvement defined as change in DAS>0.6 (ΔDAS>0.6). […]

[4] = all patients with toxicity data (n=200)

## CN(Cc1cnc2nc(N)nc(N)c2n1)c1ccc(C(=O)N[C@@H](CCC(=O)O)C(=O)O)cc1 [methotrexate]
[1]
  patients showing good clinical response: about 40%
recent-onset RA patients [2]; AMPD1 CC genotype
  Adverse drug events at six months, number of patients with event/patients: 42/146
  Adverse drug events at six months, percentage of patients: (29%)
recent-onset RA patients [2]; AMPD1 CT genotype
  Adverse drug events at six months, number of patients with event/patients: 16/50
  Adverse drug events at six months, percentage of patients: (32%)
recent-onset RA patients [2]; AMPD1 TT genotype
  Adverse drug events at six months, number of patients with event/patients: 1/3
  Adverse drug events at six months, percentage of patients: (33%)
recent-onset RA patients [2]; ATIC CC genotype
  Adverse drug events at six months, number of patients with event/patients: 21/94
  Adverse drug events at six months, percentage of patients: (22%)
recent-onset RA patients [2]; ATIC CG genotype
  Adverse drug events at six months, number of patients with event/patients: 33/91
  Adverse drug events at six months, percentage of patients: (36%)
recent-onset RA patients [2]; ATIC G-allele carriers, six months, not significant after adjustment
  times more likely to experience any adverse drug event: 2 times
recent-onset RA patients [2]; ATIC GG genotype
  Adverse drug events at six months, number of patients with event/patients: 6/15
  Adverse drug events at six months, percentage of patients: (40%)
recent-onset RA patients [2]; ITPA CA genotype
  Adverse drug events at six months, number of patients with event/patients: 8/30
  Adverse drug events at six months, percentage of patients: (27%)
recent-onset RA patients [2]; ITPA CC genotype
  Adverse drug events at six months, number of patients with event/patients: 51/169
  Adverse drug events at six months, percentage of patients: (30%)
recent-onset RA patients [2]; [4]
  Gastrointestinal (general wellbeing, nausea, vomiting, diarrhoea, constipation), frequency at 6 months, number of patients: 26
  Gastrointestinal (general wellbeing, nausea, vomiting, diarrhoea, constipation), frequency at 6 months, percentage: (13.0%)
  Hepatic elevated liver enzymes, frequency at 6 months, number of patients: 16
  Hepatic elevated liver enzymes, frequency at 6 months, percentage: (8%)
  Overall adverse drug events, total population, frequency at 6 months, number of patients: 60
  Overall adverse drug events, total population, frequency at 6 months, percentage: (30%)
  Pneumonitis, frequency at 6 months, number of patients: 0
  Pneumonitis, frequency at 6 months, percentage: (0%)
  Skin and mucosa disorders, frequency at 6 months, number of patients: 17
  Skin and mucosa disorders, frequency at 6 months, percentage: (8.5%)
recent-onset RA patients [2]; n=60 of 200
  study population that experienced at least one adverse drug event during six months of treatment: Thirty
recent-onset RA patients [2]; non-responders carrying the ATIC G-allele compared to all ATIC G-allele carriers, 95% CI 1.1,7.5
  odds ratio for adverse drug events: 2.8
recent-onset RA patients [2]; patients with good clinical response at six months compared to non-responders, 95% CI 0.22, 0.91
  odds ratio for adverse drug events: 0.45
recent-onset RA patients [3]; AMPD1 CC genotype, six months
  Good clinical response, Methotrexate 15 mg weekly, number of responders/patients: 25/36
  Good clinical response, Methotrexate 15 mg weekly, percentage: (69%)
  Good clinical response, Methotrexate 25 mg weekly, number of responders/patients: 30/98
  Good clinical response, Methotrexate 25 mg weekly, percentage: (31%)
recent-onset RA patients [3]; AMPD1 CC genotype
  Good clinical response at six months, number of patients: 57
  Good clinical response at six months, percentage of patients: (38%)
recent-onset RA patients [3]; AMPD1 CC genotyped patients
  good clinical response percentage at 6 months: 42%
recent-onset RA patients [3]; AMPD1 CT genotype, six months
  Good clinical response, Methotrexate 15 mg weekly, number of responders/patients: 15/15
  Good clinical response, Methotrexate 15 mg weekly, percentage: (100%)
  Good clinical response, Methotrexate 25 mg weekly, number of responders/patients: 13/29
  Good clinical response, Methotrexate 25 mg weekly, percentage: (45%)
recent-onset RA patients [3]; AMPD1 CT genotype
  Good clinical response at six months, number of patients: 28
  Good clinical response at six months, percentage of patients: (56%)
recent-onset RA patients [3]; AMPD1 T-allele and ATIC CC (n=22)
  percentage of good clinical response at six months: 68
recent-onset RA patients [3]; AMPD1 T-allele and ITPA CC (n=41)
  percentage of good clinical response at six months: 63
recent-onset RA patients [3]; AMPD1 T-allele carriers compared to AMPD1 CC, six months
  times more likely to achieve good clinical response: 2.1 times
recent-onset RA patients [3]; AMPD1 T-allelic carriers
  good clinical response percentage at 6 months: 60%
recent-onset RA patients [3]; AMPD1 TT genotype, six months
  Good clinical response, Methotrexate 15 mg weekly, number of responders/patients: 1/1
  Good clinical response, Methotrexate 15 mg weekly, percentage: (100%)
  Good clinical response, Methotrexate 25 mg weekly, number of responders/patients: 0/2
  Good clinical response, Methotrexate 25 mg weekly, percentage: (0%)
recent-onset RA patients [3]; AMPD1 TT genotype
  Good clinical response at six months, number of patients: 1
  Good clinical response at six months, percentage of patients: (33%)
recent-onset RA patients [3]; ATIC CC and ITPA CC (n=82)
  percentage of good clinical response at six months: 56
recent-onset RA patients [3]; ATIC CC genotype (n=97)
  patients in remission (DAS <1.6) at one-year of follow-up: 35%
recent-onset RA patients [3]; ATIC CC genotype, six months
  Good clinical response, Methotrexate 15 mg weekly, number of responders/patients: 22/25
  Good clinical response, Methotrexate 15 mg weekly, percentage: (88%)
  Good clinical response, Methotrexate 25 mg weekly, number of responders/patients: 28/61
  Good clinical response, Methotrexate 25 mg weekly, percentage: (46%)
recent-onset RA patients [3]; ATIC CC genotype
  Good clinical response at six months, number of patients: 51
  Good clinical response at six months, percentage of patients: (53%)
recent-onset RA patients [3]; ATIC CC patients
  good clinical response percentage at 6 months: 58%
recent-onset RA patients [3]; ATIC CG genotype, six months
  Good clinical response, Methotrexate 15 mg weekly, number of responders/patients: 15/22
  Good clinical response, Methotrexate 15 mg weekly, percentage: (68%)
  Good clinical response, Methotrexate 25 mg weekly, number of responders/patients: 14/60
  Good clinical response, Methotrexate 25 mg weekly, percentage: (23%)
recent-onset RA patients [3]; ATIC CG genotype
  Good clinical response at six months, number of patients: 30
  Good clinical response at six months, percentage of patients: (33%)
recent-onset RA patients [3]; ATIC G-allelic carriers
  good clinical response percentage at 6 months: 37%
recent-onset RA patients [3]; ATIC GG genotype, six months
  Good clinical response, Methotrexate 15 mg weekly, number of responders/patients: 4/5
  Good clinical response, Methotrexate 15 mg weekly, percentage: (80%)
  Good clinical response, Methotrexate 25 mg weekly, number of responders/patients: 2/9
  Good clinical response, Methotrexate 25 mg weekly, percentage: (22%)
recent-onset RA patients [3]; ATIC GG genotype
  Good clinical response at six months, number of patients: 6
  Good clinical response at six months, percentage of patients: (38%)
recent-onset RA patients [3]; ITPA A-allelic carriers
  good clinical response percentage at 6 months: 26%
recent-onset RA patients [3]; ITPA CA genotype, six months
  Good clinical response, Methotrexate 15 mg weekly, number of responders/patients: 3/5
  Good clinical response, Methotrexate 15 mg weekly, percentage: (60%)
  Good clinical response, Methotrexate 25 mg weekly, number of responders/patients: 4/22
  Good clinical response, Methotrexate 25 mg weekly, percentage: (18%)
recent-onset RA patients [3]; ITPA CA genotype
  Good clinical response at six months, number of patients: 7
  Good clinical response at six months, percentage of patients: (23%)
recent-onset RA patients [3]; ITPA CC genotype, six months
  Good clinical response, Methotrexate 15 mg weekly, number of responders/patients: 38/47
  Good clinical response, Methotrexate 15 mg weekly, percentage: (81%)
  Good clinical response, Methotrexate 25 mg weekly, number of responders/patients: 39/107
  Good clinical response, Methotrexate 25 mg weekly, percentage: (36%)
recent-onset RA patients [3]; ITPA CC genotype
  Good clinical response at six months, number of patients: 79
  Good clinical response at six months, percentage of patients: (45%)
recent-onset RA patients [3]; ITPA CC genotyped
  good clinical response percentage at 6 months: 50%
recent-onset RA patients [3]; overall population
  percentage responders (DAS≦2.4) at six months: 47%
recent-onset RA patients [3]; patients carrying all the favourable genotypes (n=16)
  response rate at six months: 88%
recent-onset RA patients [3]; patients carrying all the favourable genotypes (n=16), logistic regression
  odds ratio for achieving good clinical response: 27.8
recent-onset RA patients [3]; patients carrying all three unfavourable genotypes (n=10)
  response rate at six months: 10%

— patent publication US7713696B2, “Genetic markers for prognosis of antifolate treatment efficacy” (Academisch Zeikenhuis Leiden H.O.D.N. Lumc, priority 2006, dated 2010)
